In article PMC6437697 (Journal of Medicinal Chemistry, 2019):

How the values were obtained:
Experiment in all cases: KINOMEscan
Type in all cases: binding
Settings in all cases: read-out: % control activity remaining
NIK = target: T1, NIK (Homo sapiens, UniProt Q99558)
T1 construct: purchased Eurofins DiscoverX KINOMEscan

ARK5 = target: T2, ARK5 (Homo sapiens, UniProt O60285)
T2 construct: purchased Eurofins DiscoverX KINOMEscan
T2 sequence (O60285 1-661): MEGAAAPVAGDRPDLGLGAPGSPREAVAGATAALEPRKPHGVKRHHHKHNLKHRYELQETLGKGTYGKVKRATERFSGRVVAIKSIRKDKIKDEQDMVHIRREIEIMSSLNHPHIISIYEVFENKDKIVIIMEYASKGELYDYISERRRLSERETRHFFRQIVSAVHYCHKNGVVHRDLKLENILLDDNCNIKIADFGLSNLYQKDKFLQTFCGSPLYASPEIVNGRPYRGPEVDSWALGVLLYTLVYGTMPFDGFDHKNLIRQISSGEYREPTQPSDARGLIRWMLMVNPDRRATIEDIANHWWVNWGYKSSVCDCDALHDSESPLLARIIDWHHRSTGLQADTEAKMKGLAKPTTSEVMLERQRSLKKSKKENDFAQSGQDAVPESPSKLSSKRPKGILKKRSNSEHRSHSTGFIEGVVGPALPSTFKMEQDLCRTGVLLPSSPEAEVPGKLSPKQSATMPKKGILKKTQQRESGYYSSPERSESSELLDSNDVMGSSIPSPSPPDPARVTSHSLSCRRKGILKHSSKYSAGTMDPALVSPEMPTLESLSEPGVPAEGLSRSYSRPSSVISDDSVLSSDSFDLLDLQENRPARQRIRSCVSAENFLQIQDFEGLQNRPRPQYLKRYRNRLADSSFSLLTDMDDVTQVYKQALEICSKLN

FGR = target: T3, FGR (Homo sapiens, UniProt P09769)
T3 construct: purchased Eurofins DiscoverX KINOMEscan
T3 sequence (P09769 whole entry): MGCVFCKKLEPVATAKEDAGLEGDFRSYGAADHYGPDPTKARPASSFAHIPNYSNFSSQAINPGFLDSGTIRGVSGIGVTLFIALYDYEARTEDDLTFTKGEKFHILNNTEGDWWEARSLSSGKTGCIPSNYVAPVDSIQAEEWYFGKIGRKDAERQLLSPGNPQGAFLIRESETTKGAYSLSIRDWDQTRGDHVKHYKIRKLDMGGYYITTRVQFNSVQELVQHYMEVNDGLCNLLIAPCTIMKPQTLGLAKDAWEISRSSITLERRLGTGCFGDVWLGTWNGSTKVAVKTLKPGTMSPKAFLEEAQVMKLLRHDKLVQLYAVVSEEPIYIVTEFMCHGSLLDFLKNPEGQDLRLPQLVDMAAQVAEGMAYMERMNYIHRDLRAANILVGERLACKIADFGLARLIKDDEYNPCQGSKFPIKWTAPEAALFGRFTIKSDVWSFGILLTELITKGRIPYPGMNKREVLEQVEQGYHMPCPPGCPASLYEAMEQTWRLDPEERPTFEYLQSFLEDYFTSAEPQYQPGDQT

BUB1 = target: T4, BUB1 (Homo sapiens, UniProt O43683)
T4 construct: purchased Eurofins DiscoverX KINOMEscan

WNK3 = target: T5, WNK3 (Homo sapiens, UniProt Q9BYP7)
T5 construct: purchased Eurofins DiscoverX KINOMEscan

TAK1 = target: T6, TAK1 (Homo sapiens, UniProt O43318)
T6 construct: purchased Eurofins DiscoverX KINOMEscan
T6 sequence (O43318 1-606): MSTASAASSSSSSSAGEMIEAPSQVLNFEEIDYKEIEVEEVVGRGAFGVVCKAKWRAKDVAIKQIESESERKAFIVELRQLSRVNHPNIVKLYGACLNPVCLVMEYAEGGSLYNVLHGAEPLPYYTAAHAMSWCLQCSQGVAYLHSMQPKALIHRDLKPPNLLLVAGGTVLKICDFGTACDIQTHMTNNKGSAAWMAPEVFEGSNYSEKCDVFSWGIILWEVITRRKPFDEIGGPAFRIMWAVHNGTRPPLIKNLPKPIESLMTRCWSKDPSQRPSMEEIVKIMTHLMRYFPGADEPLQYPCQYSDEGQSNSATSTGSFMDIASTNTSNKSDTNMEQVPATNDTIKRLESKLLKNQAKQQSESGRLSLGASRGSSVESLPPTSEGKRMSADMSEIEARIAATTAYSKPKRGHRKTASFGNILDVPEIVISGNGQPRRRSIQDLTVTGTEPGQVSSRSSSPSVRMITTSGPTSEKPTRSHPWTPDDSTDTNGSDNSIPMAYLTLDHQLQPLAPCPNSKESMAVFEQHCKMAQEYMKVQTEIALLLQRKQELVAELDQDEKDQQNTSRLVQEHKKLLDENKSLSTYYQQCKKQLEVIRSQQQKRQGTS

EPHB3 = target: T7, EPHB3 (Homo sapiens, UniProt P54753)
T7 construct: purchased Eurofins DiscoverX KINOMEscan
T7 sequence (P54753 34-998): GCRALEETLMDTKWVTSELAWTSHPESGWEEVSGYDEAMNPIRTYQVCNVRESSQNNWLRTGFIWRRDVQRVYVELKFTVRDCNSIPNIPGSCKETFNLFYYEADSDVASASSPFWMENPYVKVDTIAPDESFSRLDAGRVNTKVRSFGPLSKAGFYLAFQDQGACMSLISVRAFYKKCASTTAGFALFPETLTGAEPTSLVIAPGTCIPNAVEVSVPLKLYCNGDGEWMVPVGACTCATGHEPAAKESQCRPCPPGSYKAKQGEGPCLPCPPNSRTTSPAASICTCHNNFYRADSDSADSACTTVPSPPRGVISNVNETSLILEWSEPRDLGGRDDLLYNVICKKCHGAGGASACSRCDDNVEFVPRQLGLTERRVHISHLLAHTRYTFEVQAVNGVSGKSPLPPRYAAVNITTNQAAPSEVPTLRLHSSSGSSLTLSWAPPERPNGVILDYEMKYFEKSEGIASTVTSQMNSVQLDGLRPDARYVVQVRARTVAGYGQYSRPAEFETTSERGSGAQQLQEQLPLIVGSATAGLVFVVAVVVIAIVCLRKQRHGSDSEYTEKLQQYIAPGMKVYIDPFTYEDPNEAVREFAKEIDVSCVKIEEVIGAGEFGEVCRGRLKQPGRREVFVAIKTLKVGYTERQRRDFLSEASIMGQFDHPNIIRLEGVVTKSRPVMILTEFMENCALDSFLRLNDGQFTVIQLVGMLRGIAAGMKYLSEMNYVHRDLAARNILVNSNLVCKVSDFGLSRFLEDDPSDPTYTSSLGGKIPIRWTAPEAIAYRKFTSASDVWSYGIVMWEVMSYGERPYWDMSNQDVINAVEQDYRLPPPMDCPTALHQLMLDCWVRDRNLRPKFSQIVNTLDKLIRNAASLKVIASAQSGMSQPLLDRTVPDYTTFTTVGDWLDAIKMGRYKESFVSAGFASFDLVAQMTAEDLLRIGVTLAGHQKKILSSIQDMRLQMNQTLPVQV

LYN = target: T8, LYN (Homo sapiens, UniProt P07948)
T8 construct: purchased Eurofins DiscoverX KINOMEscan
T8 sequence (P07948 whole entry): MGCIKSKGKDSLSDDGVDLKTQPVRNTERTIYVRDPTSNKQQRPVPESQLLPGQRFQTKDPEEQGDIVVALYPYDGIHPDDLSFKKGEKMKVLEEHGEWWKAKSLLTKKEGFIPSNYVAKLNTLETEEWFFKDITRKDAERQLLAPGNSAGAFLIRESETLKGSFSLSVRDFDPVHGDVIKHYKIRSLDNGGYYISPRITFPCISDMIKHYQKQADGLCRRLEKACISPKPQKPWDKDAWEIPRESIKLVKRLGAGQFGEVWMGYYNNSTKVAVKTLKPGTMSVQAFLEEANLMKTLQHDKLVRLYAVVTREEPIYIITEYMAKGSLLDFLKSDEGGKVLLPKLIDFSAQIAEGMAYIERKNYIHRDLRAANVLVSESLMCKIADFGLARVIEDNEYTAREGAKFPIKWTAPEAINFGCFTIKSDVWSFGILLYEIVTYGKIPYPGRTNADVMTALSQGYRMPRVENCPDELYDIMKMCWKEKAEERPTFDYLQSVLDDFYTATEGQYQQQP

PIM3 = target: T9, PIM3 (Homo sapiens, UniProt Q86V86)
T9 construct: purchased Eurofins DiscoverX KINOMEscan

AKT2 = target: T10, AKT2 (Homo sapiens, UniProt P31751)
T10 construct: purchased Eurofins DiscoverX KINOMEscan
T10 sequence (P31751 whole entry): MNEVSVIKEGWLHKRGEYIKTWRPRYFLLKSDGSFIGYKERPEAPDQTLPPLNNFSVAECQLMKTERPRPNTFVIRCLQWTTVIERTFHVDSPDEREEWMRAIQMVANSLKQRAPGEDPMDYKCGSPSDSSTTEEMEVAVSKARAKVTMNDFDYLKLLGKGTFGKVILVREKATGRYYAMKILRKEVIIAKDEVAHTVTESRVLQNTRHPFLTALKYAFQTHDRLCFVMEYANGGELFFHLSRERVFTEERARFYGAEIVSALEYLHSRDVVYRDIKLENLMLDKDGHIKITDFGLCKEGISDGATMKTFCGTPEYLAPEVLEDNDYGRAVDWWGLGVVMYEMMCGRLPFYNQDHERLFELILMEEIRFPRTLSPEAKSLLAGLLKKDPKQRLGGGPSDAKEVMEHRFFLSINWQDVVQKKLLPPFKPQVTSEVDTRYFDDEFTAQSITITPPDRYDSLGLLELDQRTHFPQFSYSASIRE

DMPK2 = target: T11, DMPK2 (Homo sapiens, UniProt Q6DT37)
T11 construct: purchased Eurofins DiscoverX KINOMEscan
T11 sequence (Q6DT37 whole entry): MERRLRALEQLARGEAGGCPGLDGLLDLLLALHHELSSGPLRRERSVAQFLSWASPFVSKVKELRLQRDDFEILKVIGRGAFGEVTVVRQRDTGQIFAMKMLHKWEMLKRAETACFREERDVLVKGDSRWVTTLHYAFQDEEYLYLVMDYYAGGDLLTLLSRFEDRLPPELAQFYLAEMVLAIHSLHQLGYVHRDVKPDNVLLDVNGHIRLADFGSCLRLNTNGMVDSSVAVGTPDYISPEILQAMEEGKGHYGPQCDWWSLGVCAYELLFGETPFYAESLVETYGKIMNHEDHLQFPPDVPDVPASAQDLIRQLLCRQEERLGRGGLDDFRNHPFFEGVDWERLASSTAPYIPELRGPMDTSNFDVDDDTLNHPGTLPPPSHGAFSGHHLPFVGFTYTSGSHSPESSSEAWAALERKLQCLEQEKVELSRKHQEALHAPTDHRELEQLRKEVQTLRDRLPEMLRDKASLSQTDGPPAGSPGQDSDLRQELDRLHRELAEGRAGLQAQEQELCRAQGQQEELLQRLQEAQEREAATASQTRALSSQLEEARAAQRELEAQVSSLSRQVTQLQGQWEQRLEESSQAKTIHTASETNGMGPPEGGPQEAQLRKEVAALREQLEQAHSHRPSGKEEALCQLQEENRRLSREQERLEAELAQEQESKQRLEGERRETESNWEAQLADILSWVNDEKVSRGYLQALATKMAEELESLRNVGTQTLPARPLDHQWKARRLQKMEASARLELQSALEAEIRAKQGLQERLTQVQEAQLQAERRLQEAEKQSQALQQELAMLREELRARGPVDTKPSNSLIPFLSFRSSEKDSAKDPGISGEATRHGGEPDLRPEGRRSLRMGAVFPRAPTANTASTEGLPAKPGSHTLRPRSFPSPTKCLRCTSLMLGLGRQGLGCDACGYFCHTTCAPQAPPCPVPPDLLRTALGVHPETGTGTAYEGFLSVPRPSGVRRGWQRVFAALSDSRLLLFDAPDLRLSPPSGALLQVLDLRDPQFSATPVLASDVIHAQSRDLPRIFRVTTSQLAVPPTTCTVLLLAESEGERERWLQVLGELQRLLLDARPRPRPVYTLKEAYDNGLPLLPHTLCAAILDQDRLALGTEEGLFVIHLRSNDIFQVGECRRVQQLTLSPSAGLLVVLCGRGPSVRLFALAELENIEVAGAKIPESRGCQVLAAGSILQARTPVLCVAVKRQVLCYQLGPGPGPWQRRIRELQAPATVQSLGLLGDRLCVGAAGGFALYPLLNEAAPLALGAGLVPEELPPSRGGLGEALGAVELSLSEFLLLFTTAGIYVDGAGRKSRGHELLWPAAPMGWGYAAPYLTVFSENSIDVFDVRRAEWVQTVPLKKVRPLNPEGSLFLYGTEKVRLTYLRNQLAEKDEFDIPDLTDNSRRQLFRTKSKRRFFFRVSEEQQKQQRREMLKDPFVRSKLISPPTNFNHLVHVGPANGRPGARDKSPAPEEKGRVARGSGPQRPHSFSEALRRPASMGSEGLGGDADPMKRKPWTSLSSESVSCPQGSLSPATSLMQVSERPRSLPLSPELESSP

PRKCH = target: T12, PRKCH (Homo sapiens, UniProt P24723)
T12 construct: purchased Eurofins DiscoverX KINOMEscan

CDC2L5 = target: T13, CDC2L5 (Homo sapiens, UniProt Q14004)
T13 construct: purchased Eurofins DiscoverX KINOMEscan
T13 sequence (Q14004 whole entry): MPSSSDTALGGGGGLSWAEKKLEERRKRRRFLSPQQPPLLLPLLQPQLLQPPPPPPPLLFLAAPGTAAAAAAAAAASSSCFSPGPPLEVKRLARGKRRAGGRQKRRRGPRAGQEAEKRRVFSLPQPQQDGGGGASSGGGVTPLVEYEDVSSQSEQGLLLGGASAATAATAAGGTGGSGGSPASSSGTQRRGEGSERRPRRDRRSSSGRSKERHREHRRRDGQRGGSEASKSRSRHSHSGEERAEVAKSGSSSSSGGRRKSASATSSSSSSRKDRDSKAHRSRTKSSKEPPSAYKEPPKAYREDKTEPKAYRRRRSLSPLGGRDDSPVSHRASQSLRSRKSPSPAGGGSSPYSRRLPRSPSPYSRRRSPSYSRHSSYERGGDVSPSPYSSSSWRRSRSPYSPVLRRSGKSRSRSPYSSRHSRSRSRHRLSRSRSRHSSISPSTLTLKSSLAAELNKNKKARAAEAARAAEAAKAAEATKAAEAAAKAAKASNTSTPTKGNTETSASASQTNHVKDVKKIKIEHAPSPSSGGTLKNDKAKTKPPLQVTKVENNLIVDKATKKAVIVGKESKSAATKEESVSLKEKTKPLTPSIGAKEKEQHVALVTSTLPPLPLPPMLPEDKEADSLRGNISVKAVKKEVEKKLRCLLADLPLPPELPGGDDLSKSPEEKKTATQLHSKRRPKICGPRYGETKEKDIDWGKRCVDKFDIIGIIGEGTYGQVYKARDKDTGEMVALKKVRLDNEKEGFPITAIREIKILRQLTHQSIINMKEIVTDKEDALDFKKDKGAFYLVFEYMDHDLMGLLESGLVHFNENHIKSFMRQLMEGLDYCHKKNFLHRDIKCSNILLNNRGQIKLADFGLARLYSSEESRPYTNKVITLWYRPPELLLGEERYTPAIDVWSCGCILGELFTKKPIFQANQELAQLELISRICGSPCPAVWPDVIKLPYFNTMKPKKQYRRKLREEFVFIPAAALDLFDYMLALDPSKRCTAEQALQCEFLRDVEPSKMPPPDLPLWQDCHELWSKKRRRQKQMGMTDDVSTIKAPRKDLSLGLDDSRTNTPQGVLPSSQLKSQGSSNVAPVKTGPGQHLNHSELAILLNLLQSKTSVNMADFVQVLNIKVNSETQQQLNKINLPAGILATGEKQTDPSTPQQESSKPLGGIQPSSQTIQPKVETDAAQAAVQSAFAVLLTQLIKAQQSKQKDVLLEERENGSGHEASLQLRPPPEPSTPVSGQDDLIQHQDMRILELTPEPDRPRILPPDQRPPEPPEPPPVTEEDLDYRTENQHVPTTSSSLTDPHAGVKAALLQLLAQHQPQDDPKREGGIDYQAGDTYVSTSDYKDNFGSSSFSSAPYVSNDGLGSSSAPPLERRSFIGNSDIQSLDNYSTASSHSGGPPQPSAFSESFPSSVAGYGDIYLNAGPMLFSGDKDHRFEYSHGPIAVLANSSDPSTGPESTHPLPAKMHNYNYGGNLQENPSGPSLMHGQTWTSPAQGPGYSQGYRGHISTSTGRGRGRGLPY

SMILES	remaining binding at 1 µM (NIK)	remaining binding at 1 µM (ARK5)	remaining binding at 1 µM (FGR)	remaining binding at 1 µM (BUB1)	remaining binding at 1 µM (WNK3)	remaining binding at 1 µM (TAK1)	remaining binding at 1 µM (EPHB3)	remaining binding at 1 µM (LYN)	remaining binding at 1 µM (PIM3)	remaining binding at 1 µM (AKT2)	remaining binding at 1 µM (DMPK2)	remaining binding at 1 µM (PRKCH)	remaining binding at 1 µM (CDC2L5)
Clc1cc(NCC2CC2)c2ncc(-c3ccc4[nH]ncc4c3)n2n1 [compound 2, 6-Chloro-N-(cyclopropylmethyl)-3-(1H-indazol-5-yl)imidazo[1,2-b]pyridazin-8-amine]	90%	99%	75%	83%	96%	91%	82%	92%	95%	99%	62%	96%	92%
O=C(CN1CCOCC1)N[C@H]1CC[C@H](Nc2cc(Cl)nn3c(-c4ccc5[nH]ncc5c4)cnc23)CC1 [compound 26]	78%	100%	93%	58%	100%	47%	88%	96%	71%	99%	81%	100%	84%
CN1CCC(CNc2cc(Cl)nn3c(-c4cc5nc(Nc6ccccc6)[nH]c5cc4F)cnc23)CC1 [compound 31, 6-Chloro-3-(6-fluoro-2-(phenylamino)-1H-benzo[d]imidazol-5-yl)-N-((1-methylpiperidin-4-yl)methyl)imidazo[1,2-b]pyridazin-8-amine]	92%	100%	100%	59%	82%	65%	92%	95%	92%	80%	100%	100%	96%
